From US7067633B2, “Targeting cellular entry, cell survival, and pathogenicity by dynein light chain 1/PIN in human cells” (Board of Regents, The University of Texas System, priority 2003, dated 2006)
Starred links: 1 amine or outer side, 2 acyl side, 3 side chain; linkers in the order of their positions; H or OH if unused. Positions of bridges follow the written chain, without caps; N, C: chain ends. Non-standard residues stand in square brackets, D forms with d. Residues, ends and D or L forms follow the SMILES beside them. Chains are numbered I, II in the order given. Actinocin(9to1) = Cc1c2oc3c(C)ccc(C(=O)[*:1])c3nc-2c(C(=O)[*:2])c(N)c1=O; NMeV = CN[C@H](C(=O)O)C(C)C; Sar = CNCC(=O)O

Columns and labels:
[1] = test system: DLC1/PIN; test: In vivo 32P-orthophosphate labeling and immunoprecipitation of T7-DLC1/PIN; format: cell-based, human; conditions: MCF-7 cells, EGF treatment
Description: FIGS. 2A–2G—MapDLC1/PINg of interaction domains of Pak1 and DLC1/PIN. FIG. 2A: Identification of Pak1 domains that interact with DLC1/PIN. GST-Pak1 fusion proteins containing wild-type (amino acids 1–545), kinase domain (amino acids 270–545), N-terminal domain (amino acids 1–132), PIX binding domain (amino acids 132–270), Nck-binding domain (amino acids 1–75), Cdc42/Rac-interacting (CRIB) domain (amino acids 52–132), and auto-inhibitory domain (amino acids 75–149) were incubated with in vitro translated DLC1/PIN (amino acids 1–89), and binding was analyzed by GST pull-down assay. FIG. 2B: Identification of the DLC1/PIN region that is involved in the binding of Pak1. GST-fusions of various lengths of DLC1/PIN were used in the GST pull-down assay using ^35S-labelled Pak1 (amino acids 1–545). FIGS. 2C–2G—Pak1 phosphorylation of DLC1/PIN. FIG. 2C: In vitro kinase assay using GST-DLC1/PIN as a substrate and purified bacterially expressed Pak1 as an enzyme. MBP was used as a positive control. FIG. 2D: ZR75R cells stably expressing T7-DLC1/PIN were labeled in vivo with ^32P-orthophosphate, serum starved, treated with EGF or HRG, and immunoprecipitated and phosphorylation status of DLC1/PIN was visualized by autoradiography. […] Cells were metabolically labeled with ^32P orthophosphate, treated with or without EGF (1 nM) and phosphorylation of T7-DLC1/PIN was analyzed by immunoprecipitation. […]

[2] = test system: DLC1-ER interaction; test: Coimmunoprecipitation of DLC1 with ER; format: cell-based, human; conditions: growth factor stimulation
Description: In vitro-translated ^35ER were incubated with GST-DLC1, and analyzed by SDS-PAGE and autoradiography. FIG. 13B: Identification of ER domains that interact with DLC1. GST-ER fusion proteins containing different deletion constructs were incubated with in vitro-translated 35S-DLC1 (aa 1-89), and binding was analyzed by GST pull-down assay. FIG. 13C: Mapping of the ER-binding region in DLC1. GST-fusions of various DLC1 deletion constructs were incubated with in vitro-translated ^35S-ER, and binding was analyzed by GST pull-down assay. […] Cell lysates from Ishikawa cells was immunoprecipitated (IP) with anti-ERá mAb and immunoblotted with anti-DLC1 or ER Abs. […] Cell lysates from MCF-7/TAM-sen or Ishikawa cells were treated with Tam (10^−9M) for 24 h, and IP with anti-ERá mAb and immunoblotted with anti-DLC1 or ER Abs. […] MCF-7/DLC1 cells were treated with or without Dox for 24 h and then treated with E2 (10^−9M) or Tam (10^−8M) for 24 h, and IP with anti-ERá mAb and immunoblotted with anti-DLC1 or ER Abs. FIG. 13G: Characterization of MCF-7 cells expressing T7-DLC1-Ser88A mutant under a tetracycline-inducible promoter. […] MCF-7/DLC1 and MCF-7/DLC1-Ser88A cells were treated with or without Dox for 24 h and cell lysates were IP with anti-ERá mAb and blotted with anti-DLC1, ERá and T7 Abs.
To this end, MCF-7 cells expressing a T7-DLC1 mutant in which Ser88 and amino acid 89 were deleted under a tet-inducible promoter (MCF-7/DLC1-1-87 mutant) were generated (FIG. 13G).

[3] = test system: MDA-MB231 cells; test: Vesicle formation and DLC1/PIN-Pak1 colocalization after growth factor stimulation; format: cell-based, human; conditions: serum-starved cells, 20 min
[4] = test system: SKBR-3 cells; test: Pak1-mediated macropinocytosis, vesicle formation by confocal microscopy; format: cell-based, human; conditions: cotransfected with GFP-Pak1
Description: FIG. 3—Requirement of DLC1/PIN in Pak1 mediated macropinocytosis. SKBR-3 cells were cotransfected with RFP-DLC1/PIN and GFP-Pak1 (upper panel), RFP-DLC1/PIN-S88A, and GFP-Pak1 (middle panel) and RFP-DLC1-1-66, and GFP-Pak1 (lower panel). Vesicle formation and localization of GFP and RFP proteins were analyzed by confocal microscopy. Ten randomly selected fields were analyzed for each condition. The experiment was repeated twice with similar results. Quantitation of vesicles formation was done using the following scoring system. −, cells containing 0–9 vesicles; +, cells containing 10–20 vesicles; and ++, cells containing >20 vesicles.
Requirement of DLC1/PIN in Pak1 mediated macropinocytosis. […] The inventors have used the fluorescein isothiocyanate (FITC)-labeled Dextran as a marker of endocytosis using a well-established dextran beads uptake assay (Dharmawardhane et al., 2000). […]
SK-BR3 cells were cotransfected with RFP-DLC1 and GFP-Pak1 (upper panel), RFP-DLC1-S88A and GFP-Pak1 (middle panel), and RFP-DLC8-1-66 and GFP-Pak1 (bottom panel). Vesicle formation and localization of GFP and RFP proteins were analyzed by confocal microscopy. Ten randomly selected fields were analyzed for each condition. […]

[5] = test system: NIH3T3 cells; test: UV-induced apoptosis, Lamin A/C nuclear integrity scoring; format: cell-based, murine
Description: FIGS. 5A–5C—Requirement of DLC1/PIN and Pak1 interaction in cell proliferation and survival. FIG. 5A: Equal number of cells ZR75R stable cells expressing DLC1/PIN wild type or DLC1/PIN^del88-89 mutant were plated and cell proliferation was determined by trypsinizing and counting cells using a coulter counter. Each colne was plated in triplicate and experiment was repeated twice with similar results. FIG. 5B: Cell cycle progression of DLC1/PIN wild type or mutant clones was analyzed by FACS analysis. […] For example, a smooth nuclear membrane was scored as nonapoptotic, as opposed to membrane blebbing or rupture, which was scored as apoptotic. Nuclei committed to enter mitosis were not scored in either of these groups because they were easily identified for their specific “pulverized” pattern of Lamin A/C staining. Ten randomly selected fields were analyzed for each condition. […]
DLC1/PIN regulation of cell growth and survival. […] After 10 h, apoptosis was quantitated by scoring the integrity of the nuclear membrane in cells expressing both RFP and myc tags to detect DLC/DLC1/PIN and Pak1 respectively (FIG. 5D).

[6] = test system: DLC1; test: DLC1 protein and mRNA expression; format: cell-based, human; conditions: MCF-7 cells
Description: MCF-7/Tam-sen, MCF-7/TAMR1 and Ishikawa cells were treated with E2 (10^−9M) or Tam (10^−9M) for 24 h, and cell lysates were assayed for DLC1 and Pak1 protein expression. […] FIG. 21C: Effect of different periods of E2 treatment and cycloheximide (CHX) and Actinomycin D (ACTD) treatment on the ability of E2 to upregulate DLC1 mRNA in MCF-7 cells.

For “EGF: epidermal growth factor, physiologic Pak1 activator”, the DLC1/PIN phosphorylation [1] was “stimulated DLC1/PIN phosphorylation”, the “interaction of DLC1 with ER” value ([2]; tamoxifen-resistant Ishikawa cells) was “promotes” and the “interaction of DLC1 with ER” value ([2]; tamoxifen-sensitive MCF-7 cells) was “not”. For the same molecule, the “vesicle-like structures with colocalization of DLC1/PIN and Pak1” value [3] was “substantial enhancement of vesicle-like structures”.
“S88A DLC1/PIN: DLC1/PIN mutant, serine 88 to alanine, lacking the Pak1 phosphorylation site” was tested, and the Pak1-induced vesicle formation [4] was “substantially interfered”, the “UV-induced apoptosis substantially reduced” value ([5]; 10 h after UV-irradiation) was “not” and the “protection from UV-induced apoptosis by overexpression of active Pak1” value ([5]; cotransfected with catalytically active Pak1) was “unable to protect”.
For C[C@]12CC[C@@H]3c4ccc(O)cc4C[C@@H](CCCCCCCCC[S+]([O-])CCCC(F)(F)C(F)(F)F)[C@H]3[C@@H]1CC[C@@H]2O (stereo partly drawn) [ICI 182,780], the “estrogen-induced DLC1 expression” value [6] was “effectively blocked”.
In the case of Cc1c2oc3c(C)ccc(C(=O)N[C@@H]4C(=O)N[C@H](C(C)C)C(=O)N5CCC[C@H]5C(=O)N(C)CC(=O)N(C)[C@@H](C(C)C)C(=O)O[C@@H]4C)c3nc-2c(C(=O)N[C@@H]2C(=O)N[C@H](C(C)C)C(=O)N3CCC[C@H]3C(=O)N(C)CC(=O)N(C)[C@@H](C(C)C)C(=O)O[C@@H]2C)c(N)c1=O [actinomycin D] (I: T[dV]P[Sar][NMeV] / II: T[dV]P[Sar][NMeV]; ester I:1-I:C, II:1-II:C; linker I:N-II:N via Actinocin(9to1)), the “estrogen-induced DLC1 expression” value [6] is reported as “effectively blocked”.
